Key:
Type in all cases: in vivo
[1] = system: redroot pigweed (Amaranthus retroflexus, AMARE); assay: Pre-emerge test, greenhouse herbicide activity screening; details: pre-emerge, rated 14 days after application, 0 = no damage, 100 = complete death
Summary of the method: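 Rating: 0–100 visual injury, 14 DAA. Application: acetone, 187 l/ha, 15–1000 g ai/ha, flat-fan track sprayer with nozzle 40–45 cm above soil or canopy. Post-emerge runs used 0.25% v/v surfactant on 2–3 leaf plants.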

[2] = system: barnyardgrass (Echinochloa crus-galli, ECHCG); assay: as above; details: pre-emerge, rated 14 days after application, 0 = no damage, 100 = complete death
Summary of the method: (§1)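 Compounds in acetone were track-sprayed at 15-1000 g ai/ha (187 l/ha) on sandy loam pots: pre-emerge one day after seeding, post-emerge at 2-3 leaf stage with 0.25% v/v non-ionic surfactant. Phytotoxicity was rated 14 days later on a 0 (no damage) to 100 (complete death) scale.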

[3] = system: common ragweed (Ambrosia artemisizfolia L., AMBEL); assay: as above; details: pre-emerge, rated 14 days after application, 0 = no damage, 100 = complete death
Summary of the method: as §1

[4] = system: green foxtail (Setaria viridis, SETVI); assay: as above; details: pre-emerge, rated 14 days after application, 0 = no damage, 100 = complete death
Summary of the method: as §1

[5] = system: ivyleaf morningglory (Ipomoea hederacea, IPOHE); assay: as above; details: pre-emerge, rated 14 days after application, 0 = no damage, 100 = complete death
Summary of the method: as §1

[6] = system: johnsongrass (Sorghum halepense, SORHA); assay: as above; details: pre-emerge, rated 14 days after application, 0 = no damage, 100 = complete death
Summary of the method: as §1

[7] = system: lambsquarters (Chenopodium album, CHEAL); assay: as above; details: pre-emerge, rated 14 days after application, 0 = no damage, 100 = complete death
Summary of the method: as §1

[8] = system: large crabgrass (Digitaria sanguinalis, DIGSA); assay: as above; details: pre-emerge, rated 14 days after application, 0 = no damage, 100 = complete death
Summary of the method: as §1

[9] = system: sicklepod (Cassia obtusifolia, CASOB); assay: as above; details: pre-emerge, rated 14 days after application, 0 = no damage, 100 = complete death
Summary of the method: as §1

[10] = system: velvetleaf (Abutilon theophrasti, ABUTH); assay: as above; details: pre-emerge, rated 14 days after application, 0 = no damage, 100 = complete death
Summary of the method: as §1

[11] = system: field corn (Zea mays L., var. Dekalb 535, CORN); assay: Pre-emerge test, crop safety; details: pre-emerge, rated 14 days after application, 0 = no damage, 100 = complete death
Summary of the method: (§2)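 Visual ratings on a 0-100 scale (0 no damage, 100 all plants dead) were taken at 14 days after treatment. Rates of 15-1000 g ai/ha in acetone, 187 l/ha, were sprayed onto soil one day after planting (pre-emerge) or onto 2-3 leaf plants with 0.25% v/v surfactant (post-emerge).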

[12] = system: upland rice (Oryza sp., var. Tebonnet, RICE); assay: Pre-emerge test, crop safety; details: pre-emerge, rated 14 days after application, 0 = no damage, 100 = complete death
Summary of the method: as §2

[13] = system: barnyardgrass (Echinochloa crus-galli, ECHCG); assay: Post-emerge test, greenhouse herbicide activity screening; details: phytotoxicity rating 0-100 (0 no damage, 100 complete death), 14 days after application
Summary of the method: as §2

[14] = system: common ragweed (Ambrosia artemisizfolia L., AMBEL); assay: as above; details: phytotoxicity rating 0-100 (0 no damage, 100 complete death), 14 days after application
Summary of the method: as §2

[15] = system: green foxtail (Setaria viridis, SETVI); assay: as above; details: phytotoxicity rating 0-100 (0 no damage, 100 complete death), 14 days after application
Summary of the method: as §2

[16] = system: ivyleaf morningglory (Ipomoea hederacea, IPOHE); assay: as above; details: phytotoxicity rating 0-100 (0 no damage, 100 complete death), 14 days after application
Summary of the method: as §2

[17] = system: johnsongrass (Sorghum halepense, SORHA); assay: as above; details: phytotoxicity rating 0-100 (0 no damage, 100 complete death), 14 days after application
Summary of the method: as §2

[18] = system: lambsquarters (Chenopodium album, CHEAL); assay: as above; details: phytotoxicity rating 0-100 (0 no damage, 100 complete death), 14 days after application
Summary of the method: as §2

[19] = system: large crabgrass (Digitaria sanguinalis, DIGSA); assay: as above; details: phytotoxicity rating 0-100 (0 no damage, 100 complete death), 14 days after application
Summary of the method: as §2

[20] = system: redroot pigweed (Amaranthus retroflexus, AMARE); assay: as above; details: phytotoxicity rating 0-100 (0 no damage, 100 complete death), 14 days after application
Summary of the method: as §2

[21] = system: sicklepod (Cassia obtusifolia, CASOB); assay: as above; details: phytotoxicity rating 0-100 (0 no damage, 100 complete death), 14 days after application
Summary of the method: as §2

[22] = system: velvetleaf (Abutilon theophrasti, ABUTH); assay: as above; details: 63 g ai/ha; phytotoxicity rating 0-100 (0 no damage, 100 complete death), 14 days after application
Summary of the method: as §2

[23] = system: field corn (Zea mays L., var. Dekalb 535, CORN); assay: Post-emerge test, crop safety; details: phytotoxicity rating 0-100 (0 no damage, 100 complete death), 14 days after application
Summary of the method: as §1

[24] = system: upland rice (Oryza sp., var. Tebonnet, RICE); assay: Post-emerge test, crop safety; details: phytotoxicity rating 0-100 (0 no damage, 100 complete death), 14 days after application
Summary of the method: as §1

With `COc1c(Cl)cc(F)c(-n2c(=O)cc(C(F)(F)F)n(C)c2=O)c1N1CCCC1` [Compound 1-32] the “Pre-emerge Herbicidal Activity AMARE (phytotoxicity rating, scale 0-100)” value ([1]; 63 g ai/ha) was 0, the “Pre-emerge Herbicidal Activity AMARE (phytotoxicity rating, scale 0-100)” value ([1]; 250 g ai/ha) was 100 and the “Pre-emerge Herbicidal Activity ECHCG (phytotoxicity rating, scale 0-100)” value ([2]; 63 g ai/ha) was 0. The “Pre-emerge Herbicidal Activity ECHCG (phytotoxicity rating, scale 0-100)” value ([2]; 250 g ai/ha) was 95, the “Pre-emerge Herbicidal Activity AMBEL (phytotoxicity rating, scale 0-100)” value ([3]; 63 g ai/ha) was 0 and the “Pre-emerge Herbicidal Activity AMBEL (phytotoxicity rating, scale 0-100)” value ([3]; 250 g ai/ha) was 50. The “Pre-emerge Herbicidal Activity SETVI (phytotoxicity rating, scale 0-100)” value ([4]; 63 g ai/ha) was 0, the “Pre-emerge Herbicidal Activity SETVI (phytotoxicity rating, scale 0-100)” value ([4]; 250 g ai/ha) was 100 and the “Pre-emerge Herbicidal Activity IPOHE (phytotoxicity rating, scale 0-100)” value ([5]; 63 g ai/ha) was 0. For the same compound, the “Pre-emerge Herbicidal Activity IPOHE (phytotoxicity rating, scale 0-100)” value ([5]; 250 g ai/ha) was 50, the “Pre-emerge Herbicidal Activity SORHA (phytotoxicity rating, scale 0-100)” value ([6]; 63 g ai/ha) was 0 and the “Pre-emerge Herbicidal Activity SORHA (phytotoxicity rating, scale 0-100)” value ([6]; 250 g ai/ha) was 30. For the same compound, the “Pre-emerge Herbicidal Activity CHEAL (phytotoxicity rating, scale 0-100)” value ([7]; 63 g ai/ha) was 90, the “Pre-emerge Herbicidal Activity CHEAL (phytotoxicity rating, scale 0-100)” value ([7]; 250 g ai/ha) was 100 and the “Pre-emerge Herbicidal Activity DIGSA (phytotoxicity rating, scale 0-100)” value ([8]; 63 g ai/ha) was 0. The “Pre-emerge Herbicidal Activity DIGSA (phytotoxicity rating, scale 0-100)” value ([8]; 250 g ai/ha) was 100, the “Pre-emerge Herbicidal Activity CASOB (phytotoxicity rating, scale 0-100)” value ([9]; 63 g ai/ha) was 40 and the “Pre-emerge Herbicidal Activity CASOB (phytotoxicity rating, scale 0-100)” value ([9]; 250 g ai/ha) was 40. For the same compound, the “Pre-emerge Herbicidal Activity ABUTH (phytotoxicity rating, scale 0-100)” value ([10]; 63 g ai/ha) was 90, the “Pre-emerge Herbicidal Activity ABUTH (phytotoxicity rating, scale 0-100)” value ([10]; 250 g ai/ha) was 100 and the “Pre-emerge crop damage CORN (phytotoxicity rating, scale 0-100)” value ([11]; 63 g ai/ha) was 0. The “Pre-emerge crop damage CORN (phytotoxicity rating, scale 0-100)” value ([11]; 250 g ai/ha) was 0, the “Pre-emerge crop damage RICE (phytotoxicity rating, scale 0-100)” value ([12]; 63 g ai/ha) was 20 and the “Pre-emerge crop damage RICE (phytotoxicity rating, scale 0-100)” value ([12]; 250 g ai/ha) was 40. For the same compound, the “Post-emerge Herbicidal Activity ECHCG” value ([13]; 63 g ai/ha) was 0, the “Post-emerge Herbicidal Activity ECHCG” value ([13]; 250 g ai/ha) was 0 and the “Post-emerge Herbicidal Activity AMBEL” value ([14]; 63 g ai/ha) was 0. For the same compound, the “Post-emerge Herbicidal Activity AMBEL” value ([14]; 250 g ai/ha) was 30, the “Post-emerge Herbicidal Activity SETVI” value ([15]; 63 g ai/ha) was 0 and the “Post-emerge Herbicidal Activity SETVI” value ([15]; 250 g ai/ha) was 0. The “Post-emerge Herbicidal Activity IPOHE” value ([16]; 63 g ai/ha) was 0, the “Post-emerge Herbicidal Activity IPOHE” value ([16]; 250 g ai/ha) was 70 and the “Post-emerge Herbicidal Activity SORHA” value ([17]; 63 g ai/ha) was 0. For the same compound, the “Post-emerge Herbicidal Activity SORHA” value ([17]; 250 g ai/ha) was 0, the “Post-emerge Herbicidal Activity CHEAL” value ([18]; 63 g ai/ha) was 0 and the “Post-emerge Herbicidal Activity CHEAL” value ([18]; 250 g ai/ha) was 60. The “Post-emerge Herbicidal Activity DIGSA” value ([19]; 63 g ai/ha) was 0, the “Post-emerge Herbicidal Activity DIGSA” value ([19]; 250 g ai/ha) was 0 and the “Post-emerge Herbicidal Activity AMARE” value ([20]; 63 g ai/ha) was 10. For the same compound, the “Post-emerge Herbicidal Activity AMARE” value ([20]; 250 g ai/ha) was 30, the “Post-emerge Herbicidal Activity CASOB” value ([21]; 63 g ai/ha) was 0 and the “Post-emerge Herbicidal Activity CASOB” value ([21]; 250 g ai/ha) was 0. For the same compound, the “Post-emerge Herbicidal Activity ABUTH” value [22] was 30, the “Post-emerge Herbicidal Activity CORN (crop damage)” value ([23]; 63 g ai/ha) was 0 and the “Post-emerge Herbicidal Activity CORN (crop damage)” value ([23]; 250 g ai/ha) was 0. The “Post-emerge Herbicidal Activity RICE (crop damage)” value ([24]; 63 g ai/ha) was 0 and the “Post-emerge Herbicidal Activity RICE (crop damage)” value ([24]; 250 g ai/ha) was 0.
